Data from PubChem BioAssay (NCI).
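Test compounds were applied to cells in 96-well plates for 48 hours at 5 doses. GI50: concentration for 50% inhibition of growth. TGI marks complete inhibition of growth.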

What was measured:
Experiment in all cases: DTP human tumour cell line panel, 48 h
[1] = tested on: UACC-62 melanoma
[2] = tested on: HCC-2998 colon
[3] = tested on: OVCAR-4 ovarian
[4] = tested on: SK-MEL-5 melanoma
[5] = tested on: M14 melanoma
[6] = tested on: IGROV1 ovarian
[7] = tested on: SK-OV-3 ovarian
[8] = tested on: MALME-3M melanoma
[9] = tested on: UACC-257 melanoma
[10] = tested on: LOX IMVI melanoma
[11] = tested on: KM12 colon
[12] = tested on: CCRF-CEM leukemia
[13] = tested on: DU-145 prostate
[14] = tested on: RPMI-8226 leukemia
[15] = tested on: CAKI-1 renal
[16] = tested on: SK-MEL-28 melanoma
[17] = tested on: 786-0 renal
[18] = tested on: U251 CNS
[19] = tested on: MDA-MB-231 breast
[20] = tested on: HT29 colon
[21] = tested on: SW-620 colon
[22] = tested on: UO-31 renal
[23] = tested on: NCI-H522 lung
[24] = tested on: A498 renal
[25] = tested on: NCI-H23 lung
[26] = tested on: T-47D breast
[27] = tested on: RXF 393 renal
[28] = tested on: OVCAR-3 ovarian
[29] = tested on: A549 NSCLC
[30] = tested on: NCI/ADR-RES ovarian
[31] = tested on: HOP-62 NSCLC
[32] = tested on: SK-MEL-2 melanoma
[33] = tested on: SNB-19 CNS
[34] = tested on: HCT-116 colon
[35] = tested on: SN12C renal
[36] = tested on: NCI-H226 lung
[37] = tested on: NCI-H460 lung
[38] = tested on: MOLT-4 leukemia
[39] = tested on: OVCAR-8 ovarian
[40] = tested on: HOP-92 NSCLC
[41] = tested on: HS 578T breast
[42] = tested on: SR leukemia
[43] = tested on: MDA-MB-435
[44] = tested on: SNB-75 CNS
[45] = tested on: SF-295 CNS
[46] = tested on: K-562 leukemia
[47] = tested on: HL-60(TB) leukemia
[48] = tested on: SF-268 CNS
[49] = tested on: EKVX NSCLC
[50] = tested on: COLO 205 colon
[51] = tested on: MCF7 breast
[52] = tested on: BT-549 breast
[53] = tested on: PC-3 prostate
[54] = tested on: TK-10 renal

`CN(C)c1ccc2nc3ccc(=[N+](C)C)c([N+](=O)[O-])c-3sc2c1` showed a GI50 [1] of 1.1 µM, a TGI [1] of 3 µM and a GI50 [2] of 5.18 µM. For the same molecule, the TGI [2] was 16.8 µM, the GI50 [3] was 0.906 µM and the TGI [3] was 3.04 µM. For the same molecule, the GI50 [4] was 1.44 µM, the TGI [4] was 12.1 µM and the GI50 [5] was 1.32 µM. It also gave a TGI [5] of 10.8 µM, a GI50 [6] of 2.56 µM and a GI50 [7] of 11.8 µM. The TGI [7] was 28.9 µM, the GI50 [8] was 2.38 µM and the TGI [8] was 8.97 µM. It also gave a GI50 [9] of 2.85 µM, a TGI [9] of 8.59 µM and a GI50 [10] of 1.32 µM. It also gave a TGI [10] of 7.85 µM, a GI50 [11] of 2.08 µM and a TGI [11] of 16.4 µM. For the same molecule, the GI50 [12] was 0.908 µM, the TGI [12] was 15.4 µM and the GI50 [13] was 4.75 µM. The TGI [13] was 18.3 µM, the GI50 [14] was 0.536 µM and the TGI [14] was 15.9 µM. It also gave a GI50 [15] of 2.59 µM, a TGI [15] of 13.1 µM and a GI50 [16] of 10.3 µM. It also gave a TGI [16] of 22 µM, a GI50 [17] of 6.2 µM and a TGI [17] of 21.4 µM. The GI50 [18] was 1.21 µM, the TGI [18] was 11.1 µM and the GI50 [19] was 0.578 µM. For the same molecule, the TGI [19] was 4.46 µM, the GI50 [20] was 6.04 µM and the TGI [20] was 25.1 µM. The GI50 [21] was 2.57 µM, the TGI [21] was 12.3 µM and the GI50 [22] was 5.98 µM. The TGI [22] was 23.4 µM, the GI50 [23] was 1.81 µM and the TGI [23] was 5.19 µM. The GI50 [24] was 7.06 µM, the TGI [24] was 21.9 µM and the GI50 [25] was 1.87 µM. It also gave a TGI [25] of 9.65 µM, a GI50 [26] of 2.16 µM and a TGI [26] of 7.47 µM. For the same molecule, the GI50 [27] was 4.41 µM, the TGI [27] was 18.1 µM and the GI50 [28] was 0.271 µM. The TGI [28] was 0.926 µM, the GI50 [29] was 1.46 µM and the TGI [29] was 18.1 µM. For the same molecule, the GI50 [30] was 2.33 µM, the TGI [30] was 8.13 µM and the GI50 [31] was 8.6 µM. It also gave a TGI [31] of 22.2 µM, a GI50 [32] of 4.54 µM and a TGI [32] of 16.1 µM. The GI50 [33] was 0.483 µM, the TGI [33] was 17.4 µM and the GI50 [34] was 2.45 µM. For the same molecule, the TGI [34] was 13.2 µM, the GI50 [35] was 1.37 µM and the TGI [35] was 5.26 µM. The GI50 [36] was 7.97 µM, the TGI [36] was 22.4 µM and the GI50 [37] was 2.59 µM. The TGI [37] was 15.2 µM, the GI50 [38] was 2.3 µM and the TGI [38] was 10.6 µM. It also gave a GI50 [39] of 1.87 µM, a TGI [39] of 10.4 µM and a GI50 [40] of 2.09 µM. The TGI [40] was 11.3 µM, the GI50 [41] was 3.33 µM and the TGI [41] was 26.1 µM. For the same molecule, the GI50 [42] was 0.797 µM, the TGI [42] was 17.5 µM and the GI50 [43] was 2.46 µM. The TGI [43] was 11.4 µM, the GI50 [44] was 2.93 µM and the TGI [44] was 13.3 µM. The GI50 [45] was 3.04 µM, the TGI [45] was 16.6 µM and the GI50 [46] was 1.94 µM. The TGI [46] was 19.4 µM, the GI50 [47] was 0.302 µM and the TGI [47] was 4.7 µM. For the same molecule, the GI50 [48] was 2.1 µM, the TGI [48] was 13.2 µM and the GI50 [49] was 1.67 µM. It also gave a TGI [49] of 16.2 µM, a GI50 [50] of 1.7 µM and a TGI [50] of 9.83 µM. The GI50 [51] was 1.79 µM, the TGI [51] was 5.9 µM and the GI50 [52] was 8.29 µM. It also gave a TGI [52] of 21.7 µM, a GI50 [53] of 0.599 µM and a TGI [53] of 6.78 µM. The GI50 [54] was 7.46 µM and the TGI [54] was 23.5 µM.
